Columns and labels:
FVB male mice = assay: Spinal nerve ligation (SNL) mouse model of neuropathic pain, intraperitoneal administration, von Frey tactile allodynia test; assay type: in vivo; conditions: for 50% paw withdrawal threshold, Mean, Day 1 / 50% paw withdrawal threshold, Mean, Day 2 / 50% paw withdrawal threshold, Mean, Day 5 / 50% paw withdrawal threshold, Mean, Day 6 / 50% paw withdrawal threshold, Mean, Day 7: IP 100 µl/mouse (approx. 3.3mg/Kg) daily injections day 1-5; for 50% paw withdrawal threshold, Mean, Day 0 Postoperative Baseline: group baseline after SNL injury, before first IP injection, von Frey
Description: To measure the neuropathic pain inhibiting affects of the MMP inhibitors of the present invention, the spinal nerve ligation (SNL) mouse model was run on a select number of compounds. This model which began with the work of Bennet and coworkers (Bennet, G.J. et al. Pain, 33, (1988), 87-107) and was optimized by Kim and Chung (Kim, S.H.; Chung, J.M. Pain, 50, (1992), 355-363) entails first, under magnification, the removal of one-third of the transverse process and then identifying and then dissecting free the L5 spinal nerve from the adjacent L4 spinal nerve in the mouse. The L5 spinal nerve is then tightly ligated using 6.0 silk suture. The nerve injury leads to hyperalgesia which manifests itself by enhanced responses to mechanical, heat and/or cooling stimuli. In this case, mechanical hyperalgesia is tested via Von Frey monofilaments in which filaments of varying thicknesses and bending force are individually applied to the plantar surface of the foot of the mouse. The threshold force necessary for paw withdrawal decreases dramatically after the nerve surgery. Potent pain inhibitors will reverse this affect resulting in greater force needing to be applied to cause the rodent paw to withdrawal.
Tactile Allodynia Test. Mechanical allodynia was measured using the calibrated von Frey filaments (Semmes-Weinstein monofilaments; Stoelting, Wood Dale, IL, U.S.A.). The plantar surface of the left injured paw of each animal was tested as described by Chaplan et al. (Journal of Neuroscience Methods, 53, (1994), 55-63). The Fifty percent paw withdrawal threshold response was determined by sequentially increasing or decreasing the stimulus strength according to the "up-down method" of Dixon (Annual Review Pharmacology Toxicology, 20, (1980), 441-462). For mice, […] von Frey filaments were used, with approximately equal logarithmic incremental bending forces (von Frey number: 1.65, 2.36, 2.44, 2.83, 3.22, 3.61, 3.84, 4.08, and 4.17; equivalent to 0.005, 0.02, 0.03, 0.07, 0.17, 0.41, 0.69, 1.20, and 1.48g force, respectively).
Prior to testing, each animal was placed in a suspended clear plastic chamber with a wire mesh bottom and acclimated for 15 minutes. Testing was initiated with the 0.07 g (handle marking of 2.83) applied perpendicularly to the plantar surface of the affected hind paw; each filament was applied with enough pressure to cause a buckle effect. The absence of a paw lifting/withdrawal response after 6 s prompted the use of the next higher weight filament. Paw withdrawal, indicating a positive response, prompted the use of a weaker filament. After the initial positive response (i.e., paw withdrawal), the testing continued for four additional measurements, and was used to calculate the response threshold. Four consecutive positive responses received a score of 0.001 g, and five consecutive negative responses (i.e., no paw withdrawal) received a score of 1.5 g.
Analyses for Tactile Allodynia Testing. The 50% paw withdrawal threshold was calculated (PWT; Luo and Calcutt, J. Pharmacology Experimental Therapeutics, 303(3), (2002), 1199-1205; Chaplan et al. Journal of Neuroscience Methods, 53, (1994), 55-63) using the formula: 10(Xf + κδ)/10,000 [formula] where Xf is the final von Frey filament used (log units), κ is a value that analyzes the response pattern (taken from the table published by Chaplan et al., 1994), and δ is the mean difference between stimuli (log units).
Except for the mode of administration, number of mice/group and the number of injections and amount per injection of compound given, the rest of the study was done in the same manner (in regards to the surgeries and tactile allodynia testing and analysis) as Experiment 110. 3.2 mg of each of the MMP inhibitors #5 and #10 were dissolved in 320 microliters of DMSO. To the solution was then added 32 microliters of Tween 80, followed by 2850 microliters of phosphate buffered saline (PBS). This gave a final concentration of 10% DMSO, 1% Tween and 1mg/ml compound. […]

[1] = In-vitro microsomal stability in mouse microsomes; assay type: in vitro ADME; conditions: 1 µM compound, mouse microsomes 0.3 mg/mL, at T = 60 minutes; for %Mean Remaining Parent without NADPH (%): control omitting NADPH
Method: Human and mouse microsomal stability was determined for select compounds following the method of Houston (Houston, JB; Biochem. Pharmacol. 47, (1994),1469).
1 µM concentration of compound and seperate human and mouse microsomes (0.3 mg/mL, BD bioscience) were used in the in-vitro assay. To ensure proper energy supply for microsomal degradation of compound, an energy regenerating system comprised of 100 mM potassium phosphate, 2mM NADPH, 3mM MgCl2, pH = 7.4. and the microsomal protein is added to each sample and the resulting suspension is then incubated in duplicate for 60 min at 37° C. in a rotary shaker. A control is run for each test agent in duplicate omitting NADPH to detect NADPH-free degradation. At T=0 and T= 60 min., an aliquot is removed from each experimental and control reaction and then mixed with an equal volume of ice-cold Stop Solution (consisting of 0.3% acetic acid in acetonitrile containing haloperidol and diclofenac as internal standards). Stopped reactions are then incubated for at least ten minutes at -20 °C, and an additional volume of water is then be added. The samples are then centrifuged to remove precipitated protein, and the supernatants are then analyzed by LC-MS/MS to determine the percentage of compound remaining. The LC-MS/MS system used was an Agilent 6410 mass spectrometer coupled with an Agilent 1200 HPLC and a CTC PAL chilled autosampler, all controlled by MassHunter software (Agilent), or an ABI2000 mass spectrometer coupled with an Agilent 1100 HPLC and a CTC PAL chilled autosampler, all controlled by Analyst software (ABI). After separation on a C18 reverse phase HPLC column (Agilent, Waters, or equivalent) using an acetonitrile-water gradient system, peaks were analyzed by mass spectrometry (MS) using ESI ionization in MRM mode.

Compound | 50% paw withdrawal threshold, Mean, Day 1 (FVB male mice) [g] | 50% paw withdrawal threshold, Mean, Day 2 (FVB male mice) [g] | 50% paw withdrawal threshold, Mean, Day 5 (FVB male mice) [g] | 50% paw withdrawal threshold, Mean, Day 6 (FVB male mice) [g] | 50% paw withdrawal threshold, Mean, Day 7 (FVB male mice) [g] | 50% paw withdrawal threshold, Mean, Day 0 Postoperative Baseline (FVB male mice) [g] | %Mean Remaining Parent with NADPH (%) [1] [%] | %Mean Remaining Parent without NADPH (%) [1] [%] | reversal of mechanical alodynia (FVB male mice; i.p. administration, by day 5)
Cc1ccc(C#Cc2ccc(S(=O)(=O)N[C@H](Cc3c[nH]c4ccccc34)C(=O)O)s2)cc1 [Compound 5, (R)-3-(1H-Indol-3-yl)-2-(5-p-tolylethynyl-thiophene-2-sulfonylamino)-propionic acid] | 0.078 | 0.117 | 0.238 | 0.099 | 0.128 | 0.046 | 83 | 88 | –
[2H]C([2H])([2H])c1ccc(C#Cc2ccc(S(=O)(=O)N[C@H](Cc3c[nH]c4ccccc34)C(=O)O)s2)cc1 [Compound 10, (R)-3-(1H-Indol-3-yl)-2-[5-(4-trideuteromethyl-phenylethynyl)-thiophene-2-sulfonylamino]-propionic acid-(D3, 98%)] | 0.170 | 0.350 | 1.470 | 0.867 | 0.250 | 0.096 | 85 | 91 | complete reversal of mechanical alodynia by day 5
